Assay results from patent US6825178B1, “Methods and products for treating pseudomonas infection” (The Brigham and Women's Hospital, Inc., priority 1996, dated 2004).
Marks after values point to notes of the source that are not given here.

System: transformed human airway epithelial cells (CFT1-LCFSN line)
Experiment: Inhibition of internalization of P. aeruginosa strain PAO1 into CFT1-LCFSN cells (bacterial ingestion assay)
Assay type: cell-based
Details: for mean cfu P. aeruginosa internalized (standard deviation): strain PAO1, CFT1-LCFSN cells
Excerpt: Cell lines. CFT1-LCFSN cells, carrying a retrovirally introduced chromosomal copy of the wild-type human CFTR gene were kindly provided by J. Olsen, J. Yankaskis and L. Johnson from The University of North Carolina, Chapel Hill, N.C.. The cell line parental to CFT1-LCFSN is designated CFT1; it is a line of human papilloma virus 18 E6/E7 transformed bronchial epithelial cells derived from a CF patient homozygous for ΔF508 CFTR. The CFT1-LCFSN cells have normal chloride ion conductance. CFT1-ΔF508 cells are derived from CFT1 cells and carry a cDNA introduced by a retrovirus vector that encodes the ΔF508 mutant form of CFTR. Cells were grown in supplemented F-12 medium as described in 5% CO2 at 37° C.
Bacterial strains. P. aeruginosa strains used include PAO1, a well-characterized laboratory strain, and strains 149 and 324, non-mucoid, LPS-smooth clinical isolates of P. aeruginosa from CF patients early in the course of infection. Fresh cultures of P. aeruginosa grown overnight at 37° C. on a tryptic soy agar plate were suspended in supplemented medium to prepare the bacterial inoculum. Approximately 10^6 cfu of the bacterial inoculum were added per well of 10^5, epithelial cells.
Reagents for inhibition of ingestion assays. Membranes were prepared from C127 cells as described by O'Riordan et al.. Membranes were suspended in 150 mM NaCl, 50 mM Tris, pH 7.5 and 1 mM EDTA and added at the indicated concentration to suspensions of P. aeruginosa strains prior to adding this mixture to CFT1-LCFSN cells to measure bacterial uptake. Membranes from CEM/VbI cells expressing P-glycoprotein and membranes from control CEM cells lacking P-glycoprotein were obtained from James Croop of Harvard Medical School. Purified (˜85%) recombinant CFTR was obtained from Genzyme Corp., and prepared as described. The protein was solubilized in 100 mM NaCl, 10 mM Tris, pH 8.0, 2 mM di-thio-threitol and 0.1% sodium dodecyl sulfate. Monoclonal antibodies raised to synthetic peptides corresponding to the first (MAb CF3) and fourth (MAb CF4) predicted extracellular domains of CFTR, as well as a MAb specific to a peptide representing the carboxy-terminal 14 amino acids of mature CFTR (MAb CF2) were provided by Dr. George Banting, University of Bristol, Bristol, UK [12]. Synthetic peptides were obtained from Chiron Mimetopes, San Diego, Calif. Peptide […] (15 amino acids) (SEQ.ID.NO. 3) represents amino acids 103-117 of mature CFTR, peptide […] (31 amino acids) (SEQ.ID.NO. 4) represents amino acids 881-911 of mature CFTR. Peptides were made up as a stock solution in F-12 medium containing 1 μM/μl based on the purity reported by the manufacturer. Peptides were diluted in F-12 tissue culture medium prior to use in assays.
Bacterial ingestion assay. Cells were released from monolayers in tissue culture flasks by 5 min. of incubation with trypsin-versene mixture (BioWhitaker, Walkersville, Md.), washed, counted and seeded into 96-well tissue culture plates at 10^5 cells/well in supplemented F-12 medium and incubated at 37° C. in 5% CO2. Fresh cultures of P. aeruginosa grown overnight at 37° C. on a tryptic soy agar plate were suspended in supplemented F-12 medium to prepare the bacterial inoculum. Then 10^6 colony forming units (cfu) of the bacterial inoculum were added per well of 10^5 epithelial cells. Bacteria were allowed to invade the epithelial cells for 3 to 4 hours at 37° C., after which nonadherent bacteria were removed by washing. The remaining steps of the assay and the steps involved in the controls have previously been described. Three to 9 replicates were obtained per point, and analyzed using analysis of variance (ANOVA) and the Fisher PLSD statistic to determine pairwise differences. […]

For “CFTR: purified (~85%) recombinant CFTR obtained from Genzyme Corp.”, the “inhibition of bacterial ingestion (in words)” value (CFT1-LCFSN cells, nanogram quantities of CFTR) was “significant inhibition of bacterial ingestion”, the “mean cfu P. aeruginosa internalized (standard deviation)” value (9.7 μg protein/ml) was 1.05 × 10^5 (2.5 × 10^4) cfu and the “mean cfu P. aeruginosa internalized (standard deviation)” value (78 μg protein/ml) was 8.55 × 10^4 (1.15 × 10^4) cfu. The “mean cfu P. aeruginosa internalized (standard deviation)” value (625 μg protein/ml) was 4.9 × 10^4 (1.25 × 10^4)^a cfu and the “mean cfu P. aeruginosa internalized (standard deviation)” value (5000 μg protein/ml) was 1.65 × 10^4 (1.05 × 10^4)^a cfu.
